Like-named read-outs stand apart in the source and are kept apart here. Each block holds one molecule with its values, some of them ahead of it.
Columns and labels:
[1] = system: PIKFYVE TDP-43 yeast strain; test: Propidium iodide flow cytometry viability assay, PIKFYVE TDP-43 yeast strain; type: cell-based; conditions: for IC50: reduction in PI-positive cells, values plotted in FIG. 7
Text: (§1) Generation of TDP-43 yeast model expressing human PIKfyve. Human PIKFYVE (“entry clone”) was cloned into pAG416GPDccdB (“destination vector”) according to standard Gateway cloning protocols (Invitrogen, Life Technologies). The resulting pAG416GPD-PIKFYVE plasmids were amplified in E. coli and plasmid identity confirmed by restriction digest and Sanger sequencing. Lithium acetate/polyethylene glycol-based transformation was used to introduce the above PIKFYVE plasmid into a BY4741 yeast strain auxotrophic for the ura3 gene and deleted for two transcription factors that regulate the xenobiotic efflux pumps, a major efflux pump, and FAB1, the yeast ortholog of PIKFYVE (MATa, snq2::KILeu2; pdr3::Klura3; pdr1::NATMX; fab1::G418R, his3; leu2; ura3; met15; LYS2+) (FIG. 2). Transformed yeast were plated on solid agar plates with complete synthetic media lacking uracil (CSM-ura) and containing 2% glucose. Individual colonies harboring the control or PIKFYVE TDP-43 plasmids were recovered. A plasmid containing wild-type TDP-43 under the transcriptional control of the GAL1 promoter and containing the hygromycin-resistance gene as a selectable marker was transformed into the fab/::G418R pAG416GPD-PIKFYVE yeast strain (FIG. 1). Transformed yeast were plated on CSM-ura containing 2% glucose and […] after overnight recovery in media lacking antibiotic. Multiple independent isolates were further evaluated for cytotoxicity and TDP-43 expression levels.
(§2) Viability Assay. A control yeast strain with the wild-type yeast FAB1 gene and TDP-43 (“FAB1 TDP-43”, carries empty pAG416 plasmid), and the “PIKFYVE TDP-43” yeast strain, were assessed for toxicity using a propidium iodide viability assay. Both yeast strains were transferred from solid CSM-ura/2% glucose agar plates into 3 mL of liquid CSM-ura/2% glucose media for 6-8 hours at 30° C. with aeration. Yeast cultures were then diluted to an optical density at 600 nm wavelength (OD600) of 0.005 in 3 mL of CSM-ura/2% raffinose and grown overnight at 30° C. with aeration to an OD600 of 0.3-0.8. Log-phase overnight cultures were diluted to OD600 of 0.005 in CSM-ura containing either 2% raffinose or galactose and 150 μL dispensed into each well of a flat bottom 96-well plates. Compounds formulated in 100% dimethyl sulfoxide (DMSO) were serially diluted in DMSO and 1.5 μL diluted compound transferred to the 96-well plates using a multichannel pipet. Wells containing DMSO alone were also evaluated as controls for compound effects. Tested concentrations ranged from 15 μM to 0.11 μM. Cultures were immediately mixed to ensure compound distribution and covered plates incubated at 30° C. for 24 hours in a stationary, humified incubator.
(§3) Upon the completion of incubation, cultures were assayed for viability using propidium iodide (PI) to stain for dead/dying cells. A working solution of PI was made where, for each plate, 1 μL of 10 mM PI was added to 10 mL of CSM-ura (raffinose or galactose). The final PI solution ([…]) was dispensed into each well of a new round bottom 96-well plate. The overnight 96-well assay plate was then mixed with a multichannel pipet and 50 μL transferred to the PI-containing plate. This plate was then incubated for 30 minutes at 30° C. in the dark. A benchtop flow cytometer (Miltenyi MACSquant) was then used to assess red fluorescence (B2 channel), forward scatter, and side scatter (with following settings: gentle mix, high flow rate, fast measurement, 10,000 events). Intensity histograms were then gated for “PI-positive” or “PI-negative” using the raffinose and galactose cultures treated with DMSO as controls. The DMSO controls for raffinose or galactose-containing cultures were used to determine the window of increased cell death and this difference set to 100. All compounds were similarly gated and then compared to this maximal window to establish the percent reduction in PI-positive cells.

[2] = molecular target: full-length human PIKFYVE (Homo sapiens (Human), UniProt Q9Y2I7, L932S/Q1183K/Q995L/S1033A/S696N/T998S); test: PIKfyve biochemical assay (ADP-Glo Kinase assay, Carna Biosciences)
Sequence of full-length human PIKFYVE (Q9Y2I7 whole entry S696N/L932S/Q995L/T998S/S1033A/Q1183K): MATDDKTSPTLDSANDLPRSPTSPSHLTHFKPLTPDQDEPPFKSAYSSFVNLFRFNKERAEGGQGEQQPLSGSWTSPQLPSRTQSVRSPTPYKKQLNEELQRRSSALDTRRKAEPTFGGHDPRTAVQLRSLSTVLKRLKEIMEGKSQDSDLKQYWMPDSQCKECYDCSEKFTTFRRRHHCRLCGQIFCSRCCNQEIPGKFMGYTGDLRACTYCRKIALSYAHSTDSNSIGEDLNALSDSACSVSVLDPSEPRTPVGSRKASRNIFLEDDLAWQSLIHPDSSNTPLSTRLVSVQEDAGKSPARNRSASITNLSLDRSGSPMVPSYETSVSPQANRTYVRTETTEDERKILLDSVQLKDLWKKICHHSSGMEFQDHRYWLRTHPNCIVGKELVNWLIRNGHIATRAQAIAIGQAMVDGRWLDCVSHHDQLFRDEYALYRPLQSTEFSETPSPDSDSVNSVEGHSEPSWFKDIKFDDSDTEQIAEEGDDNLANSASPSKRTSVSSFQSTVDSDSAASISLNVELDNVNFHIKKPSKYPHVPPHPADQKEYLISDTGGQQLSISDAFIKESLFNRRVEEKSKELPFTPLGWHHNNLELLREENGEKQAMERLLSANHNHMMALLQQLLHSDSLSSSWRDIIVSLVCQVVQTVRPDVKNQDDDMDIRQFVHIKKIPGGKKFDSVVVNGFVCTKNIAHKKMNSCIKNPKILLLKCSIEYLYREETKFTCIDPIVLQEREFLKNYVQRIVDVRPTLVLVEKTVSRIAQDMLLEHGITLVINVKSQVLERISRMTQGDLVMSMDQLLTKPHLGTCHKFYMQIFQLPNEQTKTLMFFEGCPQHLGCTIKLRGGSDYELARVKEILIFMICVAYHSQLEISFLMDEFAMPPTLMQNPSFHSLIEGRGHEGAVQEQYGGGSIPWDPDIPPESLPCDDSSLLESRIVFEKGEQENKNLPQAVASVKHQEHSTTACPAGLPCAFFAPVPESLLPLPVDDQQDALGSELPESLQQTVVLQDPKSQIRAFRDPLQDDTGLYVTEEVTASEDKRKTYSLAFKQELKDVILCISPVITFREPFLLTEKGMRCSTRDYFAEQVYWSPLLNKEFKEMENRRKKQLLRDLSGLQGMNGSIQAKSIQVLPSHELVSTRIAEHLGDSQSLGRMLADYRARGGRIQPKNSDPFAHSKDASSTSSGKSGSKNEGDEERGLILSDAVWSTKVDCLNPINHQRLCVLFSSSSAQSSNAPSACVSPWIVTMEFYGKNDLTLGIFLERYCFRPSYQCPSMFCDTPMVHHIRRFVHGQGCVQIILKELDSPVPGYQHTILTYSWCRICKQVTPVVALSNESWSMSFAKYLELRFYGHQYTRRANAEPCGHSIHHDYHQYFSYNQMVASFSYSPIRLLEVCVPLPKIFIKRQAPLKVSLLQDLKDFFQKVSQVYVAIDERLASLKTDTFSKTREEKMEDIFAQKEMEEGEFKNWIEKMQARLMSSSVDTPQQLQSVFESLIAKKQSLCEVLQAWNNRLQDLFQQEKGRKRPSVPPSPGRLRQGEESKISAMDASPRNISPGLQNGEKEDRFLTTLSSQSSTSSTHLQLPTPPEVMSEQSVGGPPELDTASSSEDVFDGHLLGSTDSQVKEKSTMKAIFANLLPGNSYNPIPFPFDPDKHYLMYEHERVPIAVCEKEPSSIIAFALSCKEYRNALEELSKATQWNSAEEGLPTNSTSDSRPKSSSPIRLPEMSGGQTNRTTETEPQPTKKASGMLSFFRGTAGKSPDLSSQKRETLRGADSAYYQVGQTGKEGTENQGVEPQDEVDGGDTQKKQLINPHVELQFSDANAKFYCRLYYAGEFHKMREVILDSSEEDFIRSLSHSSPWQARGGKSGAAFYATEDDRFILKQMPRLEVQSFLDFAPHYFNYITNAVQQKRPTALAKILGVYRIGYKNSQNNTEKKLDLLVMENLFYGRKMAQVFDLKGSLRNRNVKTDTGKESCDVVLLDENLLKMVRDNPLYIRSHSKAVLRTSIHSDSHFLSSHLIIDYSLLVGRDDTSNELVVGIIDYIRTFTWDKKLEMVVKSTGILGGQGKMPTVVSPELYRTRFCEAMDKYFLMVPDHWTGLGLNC
Procedure: (§4) PIKfyve Biochemical Assay. The biochemical PIKFyve inhibition assays were run by Carna Biosciences according to proprietary methodology based on the Promega ADP-Glo™ Kinase assay. […] GST-PIKFYVE was purified by using glutathione sepharose chromatography and used in an ADP-Glo™ Kinase assay (Promega). Reactions were set up by adding the test compound solution, substrate solution, ATP solution and kinase solution, each at 4× final concentrations. Reactions were prepared with assay buffer (50 mM MOPS, 1 mM DTT, pH7.2), mixed, and incubated in black 384 well polystyrene plates for 1 hour at room temperature. ADPGlo™ reagent was then added for 40 minutes, followed by kinase detection reagent for an additional 40 minutes. The kinase activity was evaluated by detecting relative light units on a luminescence plate reader. Samples were run in duplicate from 10 μM to 3 nM. […] IC50 values were calculated from concentration vs % inhibition curves by fitting to a four-parameter logistic curve.
as §4, with “The” for “PIKfyve Biochemical Assay. The”, “ADP-Glo™” for “ADPGlo™”, “uM” for “μM”, “curve. […]” for “curve.”

[3] = molecular target: hPIKfyve (Homo sapiens (Human), UniProt Q9Y2I7); test: NanoBRET TE Intracellular Kinase Assay, K-8, in HEK293 cells transfected with PIKFYVE-NanoLuc Fusion Vector; type: cell-based; conditions: 2 hours, tracer displacement, read-out: hPIKfyve BRET IC50
Sequence of hPIKfyve (Q9Y2I7 whole entry, the tested form may be a part): as the sequence (Q9Y2I7 whole entry S696N/L932S/Q995L/T998S/S1033A/Q1183K) above, with N696S, S932L, L995Q, S998T, A1033S, K1183Q counted along it
Procedure: NanoBRET™ TE Intracellular Kinase Assay, K-8 (Promega) Cell-Based Assay. Intracellular inhibition of PIKfyve was assayed using Promega's NanoBRET™ TE Intracellular Kinase Assay, K-8 according to manufacturer's instructions. A dilution series of test compounds was added for 2 hours to HEK293 cells transfected for a minimum of 20 hours with PIKFYVE-NanoLuc® Fusion Vector (Promega) containing a full-length PIKfyve according to manufacturer's specifications in a 96-well plate. Kinase activity was detected by addition of a NanoBRET™ tracer reagent, which was a proprietary PIKfyve inhibitor appended to a fluorescent probe (BRET, bioluminescence resonance energy transfer). Test compounds were tested at concentrations of 10, 3, 1, 0.3, 0.1, 0.03, 0.01, 0.003 μM. BRET signals were measured by a GloMax®Discover Multimode Microplate Reader (Promega) using 0.3 sec/well integration time, 450BP donor filter and 600LP acceptor filters. Active test compounds that bound PIKfyve and displaced the tracer reduced BRET signal. IC50 values were then calculated by fitting the data to the normalized BRET ratio.

[4] = system: FAB1 TDP-43 yeast strain; test: Propidium iodide flow cytometry viability assay, control FAB1 TDP-43 yeast strain; type: cell-based; conditions: 15 μM to 0.11 μM
Text: as §1, §2, §3

[5] = values plotted in FIG. 7, read-out: PIKFYVE Biochemistry (IC50)
[6] = ADP-Glo, GST-PIKFYVE, 10 μM to 3 nM, read-out: hPIKfyve IC50

Compound: Cc1cccc(/C=N/Nc2cc(N3CC4CC3CO4)n3nc(-c4ccncc4)cc3n2)c1 (stereo not shown)
- IC50 ([1]; Saccharomyces cerevisiae): 450 nM
- IC50 [2, 5]: 3 nM

Compound: c1ccc(-c2cccc(-c3nc(N4CCOCC4)n4nc(-c5ccncc5)cc4n3)n2)cc1
- IC50 ([1]; Saccharomyces cerevisiae): 230 nM
- IC50 [2, 5]: 14 nM

- IC50 [2, 6]: 10 to 100 nM
- IC50 [3]: 100 to 1000 nM
Compound: Cn1c(-c2ccncc2)nc2c(N3CCOCC3)nc(-c3noc(-c4ccccc4)n3)nc21 [Compound 32]

- IC50 [2, 6]: 10 to 100 nM
- IC50 [3]: 10 to 100 nM
Compound: Cn1c(-c2ccncc2)nc2c(N3CCOCC3)nc(-n3ccc(-c4cccc(F)c4)n3)nc21 [Compound 28]

Compound: Cc1cccc(/C=N/Nc2nc(N3CCOCC3)c3ncccc3n2)c1
- IC50 ([1]; Saccharomyces cerevisiae): 8210 nM

Compound: Cn1c(-c2ccncc2)nc2c(N3CCOCC3)ncnc21 [drawing 169]
- IC50 [1]: 1120 nM
- IC50 [2, 5]: 7 nM

- IC50 [2, 6]: 100 to 1000 nM
- IC50 [3]: 1000 to 10000 nM
Compound: CN1CCC(c2ccn(-c3nc(N4CCOCC4)c4nc(-c5ccncc5)n(C)c4n3)n2)C1 (stereo not shown) [Compound 37]

Compound: Cc1cccc(/C=N/Nc2nc(N3CCOCC3)c3nc(-c4ccncc4)n(C)c3n2)c1 [Compound 118]
- IC50 [2, 6]: 10 to 100 nM
- IC50 [3]: 10 to 100 nM

Compound: Fc1cccc(-c2ccnn2-c2nc(N3CCOCC3)c3ncccc3n2)c1
- IC50 ([1]; Saccharomyces cerevisiae): 5750 nM
- IC50 [2, 5]: > 10000 nM

Compound: Cc1cccc(/C=N/Nc2cc(N3CCOCC3)n3nc(-c4ccncc4)cc3n2)c1 [drawing 161]
- PIKfyve TDP-43 (active/inactive) ([1]; yeast viability, 15 μM to 0.11 μM): Active
- FAB1 TDP-43 (active/inactive) [4]: Inactive

Compound: Cc1cccc(/C=N/Nc2nc(N3CCOCC3)c3nc(-c4ccncc4)n(C)c3n2)c1 [drawing 177]
- IC50 [1]: 4720 nM
- IC50 [2, 5]: 5 nM

Compound: Oc1cc(-c2ccccc2)nn1-c1cc(N2CCOCC2)n2nc(-c3ccncc3)nc2n1
- IC50 ([1]; Saccharomyces cerevisiae): 693 nM

- IC50 [2, 6]: < 10 nM
- IC50 [3]: < 10 nM
Compound: Cc1cccc(/C=N/Nc2nc(N3CCOCC3)c3nc(-c4ccncc4)[nH]c3n2)c1 [Compound 119]

Compound: Cc1cccc(/C=N/Nc2nc(N3CCOCC3)c3nc(-c4ccncc4)n(C)c3n2)c1 [Compound 52, (E)-4-(9-methyl-2-(2-(3-methylbenzylidene)hydrazineyl)-8-(pyridin-4-yl)-9H-purin-6-yl)morpholine]
- IC50 [2, 6]: < 10 nM
- IC50 [3]: < 10 nM

Compound: c1ccc(-c2ccnc(-c3cc(N4CCOCC4)nc(OCc4ccncc4)n3)n2)cc1
- IC50 ([1]; Saccharomyces cerevisiae): 1450 nM

Compound: c1ccc(C2CN(c3nc(N4CCOCC4)n4nc(-c5ccncc5)cc4n3)CCN2)cc1 (stereo not shown)
- IC50 ([1]; Saccharomyces cerevisiae): > 15000 nM
- IC50 [2, 5]: 2660 nM

Compound: c1cc(-c2cc3nc(C4CNC4)nc(N4CCOCC4)n3n2)ccn1
- IC50 ([1]; Saccharomyces cerevisiae): > 15000 nM
- IC50 [2, 5]: 8020 nM

Compound: Oc1cc(C2CCOCC2)nn1-c1cc(N2CCOCC2)n2nc(-c3ccncc3)cc2n1
- IC50 ([1]; Saccharomyces cerevisiae): 9100 nM

- IC50 [2, 6]: 10 to 100 nM
- IC50 [3]: 10 to 100 nM
Compound: Cn1c(-c2ccncc2)nc2c(N3CCOCC3)nc(-c3ccnc(-c4ccccc4)n3)nc21 [Compound 1]

- IC50 [2, 6]: 10 to 100 nM
- IC50 [3]: 10 to 100 nM
Compound: c1cc(-c2nc3c(N4CCOCC4)nc(-n4ccc(C5CCOCC5)n4)nc3[nH]2)ccn1 [Compound 6]

- IC50 [2, 6]: 10 to 100 nM
- IC50 [3]: 100 to 1000 nM
Compound: Cn1c(-c2ccncc2)nc2c(N3CCOCC3)nc(-n3cccn3)nc21 [Compound 47]

- IC50 [2, 6]: 100 to 1000 nM
Compound: CS(=O)(=O)N1CCN(Cc2cc3c(N4CCOCC4)nc(-c4cccc5[nH]ncc45)nc3s2)CC1 [Compound 117]

Compound: Cc1cccc(/C=N/Nc2nc(N3CCOCC3)c3nc(-c4ccncc4)n(C)c3n2)c1 [drawing 168]
- IC50 [1]: 1390 nM
- IC50 [2, 5]: 1 nM

- IC50 [2, 6]: < 10 nM
Compound: Cn1c(-c2ccncc2)nc2c(N3CCOCC3)nc(-c3ccnc(C4CCNCC4)n3)nc21 [Compound 108, 4-(9-methyl-2-(2-(piperidin-4-yl)pyrimidin-4-yl)-8-(pyridin-4-yl)-9H-purin-6-yl)morpholine]

- IC50 [2, 6]: 10 to 100 nM
Compound: c1ccc(-n2ccc(-c3nc(N4CCOCC4)c4cc(-c5ccncc5)sc4n3)n2)cc1 [Compound 124]

Compound: Cn1c(-c2ccncc2)nc2c(N3CCOCC3)ncnc21 [Compound 8]
- IC50 [2, 6]: 100 to 1000 nM

- IC50 [2, 6]: < 10 nM
Compound: Cc1cccc(/C=N/Nc2nc(N3CCOCC3)c3nc(-c4ccncc4)oc3n2)c1 [Compound 120]

- IC50 [2, 6]: 10 to 100 nM
Compound: Cn1c(-c2ccncc2)nc2c(N3CCOCC3)nc(-c3ccc4c(c3)OCCO4)nc21 [Compound 45]

- IC50 [2, 6]: 10 to 100 nM
Compound: Cn1c(-c2ccncc2)nc2c(N3CCOCC3)nc(-n3ccc(-c4ccncc4)n3)nc21 [Compound 27]

- IC50 [2, 6]: 1000 to 10000 nM
Compound: Cn1c(-c2ccncc2)nc2c(N3CCOCC3)nc(-n3ccc(C4CCOC4)n3)nc21 (stereo not shown) [Compound 96, 4-(9-methyl-8-(pyridin-4-yl)-2-(3-(tetrahydrofuran-3-yl)-1H-pyrazol-1-yl)-9H-purin-6-yl)morpholine]

- IC50 [2, 6]: 100 to 1000 nM
Compound: CC(C)c1ccn(-c2nc(N3CCOCC3)c3nc(-c4ccncc4)n(C)c3n2)n1 [Compound 23]

Compound: c1ccc(N2CCc3c(OCc4cccnc4)nc(N4CCOCC4)nc32)cc1
- IC50 ([1]; Saccharomyces cerevisiae): 2680 nM

- IC50 [2, 6]: 1000 to 10000 nM
Compound: Cn1c(-c2ccncc2)nc2nc(-c3ccnc(-c4ccccc4)n3)nc(N3CCOCC3)c21 [Compound 2, 7-methyl-6-(morpholin-4-yl)-2-(2-phenylpyrimidin-4-yl)-8-(pyridin-4-yl)-7H-purine]

- IC50 [2, 6]: 100 to 1000 nM
Compound: Cn1c(C2CCCNC2)nc2c(N3CCOCC3)nc(-n3ccc(-c4ccccc4)n3)nc21 (stereo not shown) [Compound 10]
